Reference: patent US5296481A, “Treatment process for promoting weight loss employing a substituted Δ 5” (Humanetics Corporation, priority 1992, dated 1994)

Columns and labels:
[1] = test system: Cytosolic malic enzyme, rat liver; assay: Cytosolic malic enzyme activity in liver of steroid-fed rats (enzyme induction in rat liver by C19 steroids); format: in vivo, rat (male Sprague Dawley); conditions: 6 days, rat liver cytosol
Source text: (§1) Administration of Hormone: Male Sprague Dawley rats weighing 125-150 gm were obtained from Sasco Inc. of Oregon, Wis. The rats were allowed free access to water and Purina Rat Chow pellets for the first day after arrival Administration of the steroids began on day two. The steroids were either administered orally (combined with the Purina Rat Chow) or injected intraperitoneal as set forth in Table 1 for 6 days.
(§2) Preparation of Liver Mitochondria and Cytosol. The treated rats were sacrificed by decapitation after 6 days of treatment. The livers were excised, placed in 10 ml of a buffer consisting of 250 mM mannitol, 70 mM sucrose, and 3 mM Hepes (hereinafter MSH buffer) at pH 7.4, weighed, removed from the buffer, minced with scissors, washed with MSH buffer, suspended in MSH buffer at a ratio of 1 gram minced liver to 5 ml MSH buffer, and homogenized with a Potter-Elvehjem rotary homogenizer.
The Cytosolic fraction was obtained by recentrifuging the previously centrifuged supernatant solution at 100,000 g for 30 minutes in a Beckman Model L2 ultracentrifuge, type 40 rotor. The resultant supernatant solution was stored at -70° C.
(§3) Protein concentrations in the resultant preparations were determined by the Biuret method described in Layne E., Methods Enzymology, vol. 3, pp 450451 (1957) which is hereby incorporated by reference. Briefly, the protein concentrations were determined by treating a dilute protein solution with copper tartrate solution and measuring the optical density at 540 nm.
Cytosolic malic enzyme activity was measured in accordance with the method described in Hsu, R. Y. and Lardy, H. A., Methods Enzymol., vol. 8, pp 230-235 (1967). Briefly, aliquots of the previously prepared cytosol containing 0.1 to 0.5 mg of protein were incubated in a test tube containing 0.8 mM malate, 67 mM triethanolamine buffer (pH 7.4), 4 mM MnCl2, and 0.2 mM NADP in a total volume of 1 ml for 3 min at 26° C. Activity of malic enzyme was calculated from the rate of change in optical density measured at 340 nm from 0.5 to 2 minutes with an On Line Instrument Systems, Model 3820 Data System, Spectrophotometry, Cary--15, Version 4.08.

[2] = test system: Mitochondrial G3P-DH (glycerol 3-phosphate dehydrogenase), rat liver; assay: Mitochondrial G3P-DH activity in liver of steroid-fed rats (enzyme induction in rat liver by C19 steroids); format: in vivo, rat (male Sprague Dawley); conditions: 6 days, rat liver mitochondria
Source text: as §1, §2
The Mitochondria fraction was prepared by the method described in Johnson, D. and Lardy, H. A., Methods Enzymology, vol. 10, pp 94-96 (1967) which is hereby incorporated by reference. Briefly, liver homogenate was centrifuged in a Beckman Model J2-21 centrifuge, JA-20 rotor at 750 g for 10 minutes and the resulting supernatant solution centrifuged at 15,000 g for an additional 10 minutes. The resulting mitochondrial pellets were washed twice with MSH buffer, resuspended in 0.8 to 1 ml of a 35 wt % aqueous glycerol solution, and stored at -70° C.
as §3
Enzyme Assays. Mitochondrial G3P-DH activity was measured by the method described in Wernette, M. E., Ochs, R. S., and Lardy, H. A., J. Biol. Chem., vol. 256, pp 12767-12771 (1981) which is a modified version of the method described in Gardner, R. S., Anal. Biochem., vol. 59, pp 272-276 (1974). Both references are hereby incorporated by reference. Briefly, aliquots of the previously prepared mitochondria containing 0.1 to 0.2 mg of protein were incubated in a test tube containing 50 mM sn-glycerol-3-P,50 mM potassium phosphate (pH 7.0), 1 mM KCN, and 0.2% p-iodonitrotetrazolium violet in a total volume of 0.4 ml for 30 min at 37° C. The incubating mitochondria were continuously agitated during the incubation period by a Dubnoff shaker agitated at 100 cycles/min. Incubation was ceased by the addition of 0.6 ml of 1M acetic acid to the test tube. The iodoformazan formed during the incubation period was extracted into 2 ml of ethyl acetate by adding the ethyl acetate to the test tube, mixing thoroughly, and then decanting the ethyl acetate containing the iodoformazan from the test tube. The optical densities of the iodoformazan containing ethyl acetate layers were read at 490 nm by means of an On Line Instrument Systems, Model 3820 Data System, Spectrophotometry, Cary--15, Version 4 08. An extinction coefficient value of 2.01×10^4 /(M cm) for the iodoformazan product in ethyl acetate was used to calculate enzyme activities.

Row | Compound | Malic Enzyme (% control) ([1]; 0.01 wt % steroid in diet) | Malic Enzyme (% control) ([1]; 0.05 wt % steroid in diet) | Malic Enzyme (% control) ([1]; 0.1 wt % steroid in diet) | G3P-DH (% control) ([2]; 0.01 wt % steroid in diet) | G3P-DH (% control) ([2]; 0.05 wt % steroid in diet) | G3P-DH (% control) ([2]; 0.1 wt % steroid in diet) | further results
1 | C[C@]12CC[C@H](O)CC1=CC(=O)[C@@H]1[C@@H]2CC[C@]2(C)C(=O)CC[C@@H]12 [7-keto DHEA, Δ5-Androstene-3β-ol-7,17-dione] | 229 | 449 | 350 | 183 | 439 | 220 | Malic Enzyme (% control) ([1]; 0.0575 wt % steroid in diet): 341 % control; G3P-DH (% control) ([2]; 0.0575 wt % steroid in diet): 224 % control
2 | C[C@]12CC[C@H](O)CC1=CC[C@@H]1[C@@H]2CC[C@]2(C)C(=O)CC[C@@H]12 [DHEA, Δ5-androstene 3β-hydroxy, 17-one, reference compound] | 64 | 337 | 394 | 139 | 251 | 265 | Malic Enzyme (% control) ([1]; 0.2 wt % steroid in diet): 512 % control; G3P-DH (% control) ([2]; 0.2 wt % steroid in diet): 380 % control
3 | C[C@]12CC[C@H]3[C@@H]([C@H](O)C=C4C[C@@H](O)CC[C@@]43CO)[C@@H]1CCC2=O [Δ5 Androstene 3β,7α,19-ol-17-one, reference compound] |  |  | 118 |  |  | 117 | 
4 | C[C@]12CC[C@H](O)CC1=C[C@@H](O)[C@@H]1[C@@H]2CC[C@]2(C)C(=O)CC[C@@H]12 [Δ5 Androstene 3β,7α-ol-17-one, Δ5-Androstene 3β,7α-diol-17-one] |  | 423 |  |  | 292 |  | Malic Enzyme (% control) ([1]; 0.033 wt % steroid in diet): 374 % control; G3P-DH (% control) ([2]; 0.033 wt % steroid in diet): 308 % control
5 | C[C@]12CC[C@H]3[C@@H]([C@H](O)C=C4C[C@@H](O)CC[C@@]43C)[C@@H]1CC[C@@H]2O [Δ5-Androstene 3β,7α,17β-triol] | 108 |  | 611 | 99 |  | 227 | 
6 | C[C@]12CC[C@H]3[C@@H](C(=O)C=C4C[C@@H](O)CC[C@@]43C)[C@@H]1CC[C@@H]2O [Δ5-Androstene 3β,17β-diol-7-one, Δ5-Androstene-3β,17β-diol-7-one] | 175 | 305 |  | 130 | 360 | 286 | 
7 | CC(=O)O[C@H]1CC[C@@]2(C)C(=CC(=O)[C@@H]3[C@@H]2CC[C@]2(C)C(=O)CC[C@@H]32)C1 [Δ5-Androstene-3β-ol-7,17-one acetate, Δ5-Androstene 3β-acetoxy-7,17-dione] |  |  |  |  |  |  | Malic Enzyme (% control) ([1]; 0.115 wt % steroid in diet): 447 % control; G3P-DH (% control) ([2]; 0.115 wt % steroid in diet): 261 % control
8 | CC1C=C2C[C@@H](O)CC[C@]2(C)[C@H]2CC[C@]3(C)C(=O)CC[C@H]3[C@H]12 (stereo partly drawn) [Δ5-Androstene-3β-ol-7-methyl-17-one, reference compound] |  |  | 121 |  |  | 91 | 
9 | CC(=O)O[C@H]1CC[C@@]2(C)C(=CC(=O)[C@H]3[C@@H]4CC[C@H](OC(C)=O)[C@@]4(C)CC[C@@H]32)C1 [Δ5-androstene 3β,17β-diol-7-one diacetate] | 119 |  |  | 173 |  |  | Malic Enzyme (% control) ([1]; 0.13 wt % steroid in diet): 452 % control; G3P-DH (% control) ([2]; 0.13 wt % steroid in diet): 232 % control
